Source: publication PMC5929447 (Oncotarget, 2018)
Where two headings read alike, the source gives them in different places.

Legend:
H146 cell line = assay: CellTiter-Glo cell viability, H146; type: cell-based; settings: Homo sapiens, NCI-H146; 72 h of treatment
Experimental: (§1) Cells were seeded into 96-well plates and treated at 8 points with 1:2 serial dilution of compounds. Cell viability was assessed and assayed for viability using CellTiter-Glo reagent (Promega) following the manufacturer's instructions. Plates were read using Tecan luminescence plate reader. Results were normalized to the viability of cells without compounds (control wells). The IC50 values were calculated using nonlinear regression algorithms in XCell software.

[1] = system: control RS4;11 cells (shRNA CT); assay: Viability of RS4;11 cells transduced with shRNA CT (control); type: cell-based; settings: Homo sapiens, 72 h
Toledo cells = assay: CellTiter-Glo viability, Toledo; type: cell-based; settings: Homo sapiens, 72 h
Experimental: as §1

[2] = system: primary Chronic Lymphocytic Leukemia cells; assay: Apoptosis (annexin V/PI flow cytometry) in primary CLL cells; type: cell-based; settings: Homo sapiens, CLL cell, 4 h
Experimental: (§2) Peripheral blood samples from CLL patients were obtained with informed patient consent and local ethical committee approval (UHL-09723). […] Interphase fluorescence in situ hybridization (FISH) was performed for detection of 17p13 deletion. Mantle cell lymphoma (MCL) primary cells were obtained after informed consent from MCL patients treated at the department of clinical hematology from the University Hospital of Nantes, France. Peripheral MCL cells from blood or pleural effusion, were purified after Ficoll-Hypaque separation with immuno-magnetic anti-CD19 beads (Miltenyi, Paris, France). Primary cells were cultured in RPMI-1640 supplemented with 10% FCS and 2 mM glutamine. Human platelets were isolated from citrate blood donated by healthy volunteers. Washed platelets were cultured in Hepes-buffered saline (HBS, 10 mM Hepes, 150 mM NaCl, 5 mM KCl, 1 mM MgSO4, pH 7.4). […] EC50 values were calculated using GraphPadPrism (non-linear fit, sigmoidal dose response, variable slope). […] Cell death was assessed in the CD19+ primary MCL cells by annexinV-FITC staining combined with an analysis of altered cellular morphology (lower FCS). Fluorescence was analyzed on FACSCalibur.

[3] = system: primary Mantle Cell Lymphoma cells; assay: Apoptosis (annexin V flow cytometry) in primary MCL cells; type: cell-based; settings: Homo sapiens, 24 h
Experimental: as §2

platelets = assay: Platelet counts in RS4;11-bearing mice; type: in vivo; settings: 25 and 100 mg/kg single oral dose, 16 h post dosing
Experimental: When tumors reached approximately 200 mm^3 for efficacy studies or 300 mm^3 for pharmacodynamic studies, mice were randomized. […] Mice were treated via oral gavage at 10 ml/kg with the doses and schedules described in the figure.
For pharmacodynamic studies, blood and tumors were removed 16 h post dosing and immediately snap-frozen. Total proteins were extracted from the tumors and caspase-3 activity was assessed in triplicate using CaspACE® Assay System (Promega). Platelet cell counts were determined 16 hours post dosing using Coulter AcT diff (Beckman).

RS4;11 cells = assay: Apoptosis hallmarks in RS4;11 cells (annexin V/PI flow cytometry, MSD cleaved caspase-3 and PARP); type: cell-based
Experimental: Cells were incubated with 200 μl of binding buffer containing AnnexinV-FITC (Invitrogen) and propidium iodide (PI, Sigma) during 15 min at 20° C in the dark. THP-1 cells were incubated with 200 μl of binding buffer containing AnnexinV-APC (BD Biosciences) and DAPI (Sigma). 400 μl of binding buffer was added and samples were kept at 4° C before cytometric analysis. […] Fluorescence was collected at 520 (FITC), 630 nm (PI), 660 nm (APC) and 470 (DAPI). Numbers of apoptotic cells (addition of primary apoptosis, secondary apoptosis and necrosis) was normalized to the total numbers of cells per tubes. page 6: Cleaved PARP and cleaved caspase-3 Cleared lysates (5 μg) were assayed for immunodetection immunodetection by MesoScale Discovery of cleaved PARP and cleaved caspase-3 with MSD (MSD) assay Apoptosis Panel Whole Cell Lysate kit (MSD […]) in 96-well plates according to manufacturer 's instructions, 24 h after seeding, cells were treated with the and analyzed on the Sector Image 2400. Control DMSO indicated compounds for 4 h and harvested in lysis buffer conditions were set to 100% and fold-activation calculated. […] Cleaved caspase-3 (C) and cleaved PARP (D) was measured using MesoScale Discovery Apoptosis panel. […]

BFL-1 = target: T1, BFL-1 (Homo sapiens, UniProt Q16548); assay: Fluorescence polarization (FP) with Fluorescein-PUMA, BFL-1
T1 sequence (Q16548 1-175): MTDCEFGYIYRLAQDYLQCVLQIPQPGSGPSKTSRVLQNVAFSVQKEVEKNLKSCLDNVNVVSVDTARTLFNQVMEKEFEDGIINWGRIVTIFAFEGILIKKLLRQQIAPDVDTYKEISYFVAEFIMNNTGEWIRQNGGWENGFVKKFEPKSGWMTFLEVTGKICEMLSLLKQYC
Experimental: Final concentrations of MCL-1, BFL-1, BCL-2 and BCL-XL proteins were 10, 10, 10 and 20 nM respectively. The assay plates were incubated for 2 hours at room temperature and the FP was measured on a Synergy 2 reader (Ex. 528 nm, Em. 640 nm, Cut-off 510 nm). The binding of increasing doses of compound was expressed as a percentage reduction in mP compared to the window established between ‘DMSO only’ and ‘total inhibition’ control (30 μM PUMA). […] The KI was subsequently calculated as previously described [42].

[4] = system: BCL-XL-dependent FL5.12 cells; assay: Apoptosis (annexin V/PI) in FL5.12 cells expressing BCL-XL upon IL-3 withdrawal; settings: 24 h upon IL-3 withdrawal

## O=C(c1cc(-c2cc3c(cc2C(=O)N2Cc4ccccc4C[C@H]2CN2CCOCC2)OCO3)n2c1CCCC2)N(c1ccccc1)c1ccc(O)cc1 [S55746]
H146 cell line
  IC50: 1700 nM
[1]
  IC50: 57 nM
Toledo cells
  IC50: 401 nM
[2]; 7 patients, 4 hours of treatment, read-out: EC50 apoptosis in primary CLL cells, range over patients
  EC50: 4.4 to 47.2 nM
[2]; read-out: EC50 S55746 primary CLL cells, patient CLL1, p17 del No, 4 h
  EC50: 47.2 nM
[2]; read-out: EC50 S55746 primary CLL cells, patient CLL2, p17 del No, 4 h
  EC50: 13.8 nM
[2]; read-out: EC50 S55746 primary CLL cells, patient CLL3, p17 del Yes, 4 h
  EC50: 13.7 nM
[2]; read-out: EC50 S55746 primary CLL cells, patient CLL4, p17 del No, 4 h
  EC50: 12 nM
[2]; read-out: EC50 S55746 primary CLL cells, patient CLL5, p17 del No, 4 h
  EC50: 9.9 nM
[2]; read-out: EC50 S55746 primary CLL cells, patient CLL6, p17 del Yes, 4 h
  EC50: 7.8 nM
[2]; read-out: EC50 S55746 primary CLL cells, patient CLL7, p17 del No, 4 h
  EC50: 4.4 nM
[3]; 8 patients, 24 h of treatment, read-out: EC50 apoptosis in primary MCL cells, range over patients
  EC50: 2.5 to 110 nM
[3]; read-out: EC50 S55746 primary MCL cells, patient MCL2, 24 h
  EC50: 15 nM
[3]; read-out: EC50 S55746 primary MCL cells, patient MCL3, 24 h
  EC50: 12 nM
[3]; read-out: EC50 S55746 primary MCL cells, patient MCL4, 24 h
  EC50: 12 nM
[3]; read-out: EC50 S55746 primary MCL cells, patient MCL5, 24 h
  EC50: 5 nM
[3]; read-out: EC50 S55746 primary MCL cells, patient MCL6, 24 h
  EC50: 4 nM
[3]; read-out: EC50 S55746 primary MCL cells, patient MCL7, 24 h
  EC50: 3 nM
[3]; read-out: EC50 S55746 primary MCL cells, patient MCL8, 24 h
  EC50: 2.5 nM
platelets
  platelet counts in vivo: did not induce platelet loss
RS4;11 cells; 2 h
  apoptosis induction, externalization of phosphatidylserine (PS+ cells): rapidly induced apoptosis in a concentration dependent-manner
RS4;11 cells; MSD assay
  cleavage of caspase-3 and PARP: observed upon treatment by S55746 in a concentration dependent manner
BFL-1; FP
  binding to BFL-1: No significant binding
BFL-1; at 5E-06 M
  FP_BFL-1, % of inhibition at the maximal tested concentration: 7.4%@5E-06
[4]
  apoptosis induction (PS+ cells) in BCL-XL-dependent FL5.12 cells: minor effect
